# Measured values as given in patent US20200046800A1, “BIOCIDAL AGENT” ("VERTA RESEARCH-PRODUCTION COMPANY" LTD, priority 2017, published 2020).
# What was measured:
# [1] = test system: human herpes simplex virus type 2 (HPV-2); details: male rabbits, local application; cited from earlier work
# [2] = guinea pigs, HPV-2; cited from earlier work
# HPV-2 = details: guinea pigs; cited from earlier work
# [3] = test system: type 2 herpes simplex virus, strain G (ATCC VR-734); experiment: Lethal herpes infection in mice by vaginal infection, protective effect of gels; type: in vivo
# From the text: Eight groups of animals, containing 15 subjects each, were formed to conduct the experiment.
# Groups 1-6: infected with type 2 herpes simplex virus and administered gels I-VI (experimental groups 1-6).
# Group 8: infected with type 2 herpes simplex virus and not administered any pharmaceutical preparations (virus control).
# Type 2 herpes simplex virus, strain G (ATCC VR-734, USA), was used in the experiment. The virus was cultivated in the T98G cell culture (human brain glioblastoma), then adapted to mice by two consecutive intracerebral passages. To prepare the final infective material, the animals were intracerebrally infected with brain tissue homogenate from the second passage; on the 4th day post infection, the animals were euthanized, their brain was extracted, homogenized, used to infect Vero cells, and incubated for 48 hours at 37° C. under 5% CO2 using the culture fluid, in which the infectious titer of the virus was previously determined, as the infective material.
# The murine vaginal epithelium was injured with a scarifier for vaginal smears, after which the animals were infected with 30 μl of the virus at a 10^6 TCID50 dose. The examined gels were administered to mice in […] per the following regimen: 0.05 ml once a day 1, 2, 3, 4, and 5 days post infection.
# The animals were followed for 18 days; their mortality was recorded daily. Cessation of mortality was defined by the absence of mice with signs of herpetic vaginitis (vaginal discharge) and complications thereof (posterior limb paresis). Based on the mortality data for each group, the mortality rate (Mr, ratio of the fallen animals at the time of control to the total number of infected animals in the group), protective index (IP, ratio of the difference in the percentage of mortality in the control and experimental groups to the percentage of mortality in the control group), and average life span of the animals (ALS) per each day of the experiment were calculated.
# The protective effect of the peptide-containing gels was assessed by the reduction in the specific mortality and increase in the life span of the animals compared to the control group that wasn't treated.
# [4] = n = 15, vaginal HSV-2 10^6 TCID50, gel 0.05 ml once a day days 1-5, followed 18 days
# [5] = n = 15, vaginal HSV-2, followed 18 days
Compound,Length of the primary genital herpes outbreak [1],Viral load on the body [1],Discharge of the virus from the lesions [2],Disease duration (HPV-2),"Number of dead animals [3, 4]","Number of survived animals [3, 4]","ALS (average life span) [3, 5]","Mortality [3, 5] [%]","Increase in ALS ([3]; versus virus control, n = 15)"
NH2-His-Gly-Val-Ser-Gly-His-Gly-Gln-His-Gly-Val-His-Gly-COOH (H-HGVSGHGQHGVHG-OH) [Peptide 1],significantly shortened,reduced,statistically significant reduction,statistically significant reduction,–,–,–,–,–
Nc1nc2c(ncn2COCCO)c(=O)[nH]1 [Acyclovir],–,–,–,–,4,11,13.9 24 hrs.,26.7,2.6
